Assay results published in US6441023B1 (American Home Products Corporation, priority 1997, dated 2002).

How the values were obtained:
Format in all cases: biochemical
[1] = molecular target: T1, MMP 9 (Homo sapiens, UniProt P14780); assay: In vitro gelatinase assay (human neutrophil gelatinase B); settings: for IC50: read-out: MMP 9 IC 50
T1 construct: from tissue; host or cells: human neutrophils
Protocol: The assay is based on the cleavage of the thiopeptide substrate ((Ac-Pro-Leu-Gly(2 mercapto-4 methyl-pentanoyl)-Leu-Gly-OEt), Bachem Bioscience) by the enzyme, gelatinase, releasing the substrate product which reacts calorimetrically with DTNB ((5,5′-dithio-bis(2-nitro-benzoic acid)). The enzyme activity is measured by the rate of the color increase.
The thiopeptide substrate is made up fresh as a 20 mM stock in 100% DMSO and the DTNB is dissolved in 100% DMSO as a 100 mM stock and stored in dark at room temperature. Both the substrate and DTNB are diluted together to 1 mM with substrate buffer (50 mM HEPES pH 7.5, 5 mM CaCl2) before use. The stock of human neutrophil gelatinase B is diluted with assay buffer (50 mnM HEPES pH 7.5, 5 mM CaCl2, 0.02% Brij) to a final concentration of 0.15 mnM.
The increase in OD405 is plotted and the slope of the line is calculated which represents the reaction rate.

[2] = molecular target: T2, TACE (Homo sapiens, UniProt P78536); assay: Procedure for measuring TACE inhibition; set-up: TACE % inhibition: dose or concentration left out as unconfirmed; settings: for IC50: read-out: TACE IC 50
T2 construct: purchased Immunex
Protocol: Using 96-well black microtiter plates, each well receives a solution composed of 10 μL TACE (Inmunex, final concentration 1 μg/mL), 70 μL Tris buffer, pH 7.4 containing 10% glycerol (final concentration 10 mM), and 10 μL of test compound solution in DMSO ([…], DMSO concentration <1%) and incubated for 10 minutes at room temperature. The reaction is initiated by addition of a fluorescent peptidyl substrate (final concentration 100 μM to each well and then shaking on a shaker for 5 sec.
The reaction is read (excitation 340 nm, emission 420 nm) for 10 min. and the increase in fluorescence over time is plotted as a linear line. The slope of the line is calculated and represents the reaction rate.
The mean (xtsem) of the control rate is calculated and compared for statistical significance (p<0.05) with drug-treated rates using Dunnett's multiple comparison test.

[3] = molecular target: MMP 13 (Homo sapiens, UniProt P45452); assay: MMP 13 inhibition (manual); settings: for IC50: read-out: MMP 13 IC 50
[4] = molecular target: T3, MMP 1 (Homo sapiens, UniProt P03956); assay: In vitro collagenase assay (human recombinant fibroblast collagenase); settings: for IC50: read-out: MMP 1 IC 50
T3 construct: human recombinant fibroblast collagenase (truncated, mw=18,828, WAR, Radnor)
T3 sequence (P03956 100-269 limits assumed): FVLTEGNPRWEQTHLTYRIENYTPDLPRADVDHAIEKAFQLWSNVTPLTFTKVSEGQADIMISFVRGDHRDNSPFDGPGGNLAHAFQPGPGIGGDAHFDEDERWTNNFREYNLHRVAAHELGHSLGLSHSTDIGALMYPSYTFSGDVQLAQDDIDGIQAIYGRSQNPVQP
Protocol: The assay is based on the cleavage of a peptide substrate ((Dnp-Pro-Cha-Gly-Cys(iNe)-His-Ala-Lys(NMa)-NH2), Peptide International, Inc.) by collag,enase releasing the fluorescent NMa group which is quantitated on the fluorometer. Dnp quenches the NiIa fluorescence in the intact substrate. […] Substrate is dissolved in methanol and stored frozen in 1 mM aliquots. Collagenase is stored frozen in buffer in 25 µM aliquots. For the assay, substrate is dissolved in HCBC buffer to a final concentration of 10 μM and collagenase to a final concentration of 5 nM. Compounds are dissolved in methanol, DMSO, or HCBC. The methanol and DMSO are diluted in HCBC to <1.0%. Compounds are added to the 96 well plate containing enzyme and the reaction is started by the addition of substrate.
The slope of the line is calculated and represents the reaction rate.
The mean (x±sem) of the control rate is calculated and compared for statistical significance (p<0.05) with drug-treated rates using Dunnett's multiple comparison test.

T2 sequence (P78536 215-824): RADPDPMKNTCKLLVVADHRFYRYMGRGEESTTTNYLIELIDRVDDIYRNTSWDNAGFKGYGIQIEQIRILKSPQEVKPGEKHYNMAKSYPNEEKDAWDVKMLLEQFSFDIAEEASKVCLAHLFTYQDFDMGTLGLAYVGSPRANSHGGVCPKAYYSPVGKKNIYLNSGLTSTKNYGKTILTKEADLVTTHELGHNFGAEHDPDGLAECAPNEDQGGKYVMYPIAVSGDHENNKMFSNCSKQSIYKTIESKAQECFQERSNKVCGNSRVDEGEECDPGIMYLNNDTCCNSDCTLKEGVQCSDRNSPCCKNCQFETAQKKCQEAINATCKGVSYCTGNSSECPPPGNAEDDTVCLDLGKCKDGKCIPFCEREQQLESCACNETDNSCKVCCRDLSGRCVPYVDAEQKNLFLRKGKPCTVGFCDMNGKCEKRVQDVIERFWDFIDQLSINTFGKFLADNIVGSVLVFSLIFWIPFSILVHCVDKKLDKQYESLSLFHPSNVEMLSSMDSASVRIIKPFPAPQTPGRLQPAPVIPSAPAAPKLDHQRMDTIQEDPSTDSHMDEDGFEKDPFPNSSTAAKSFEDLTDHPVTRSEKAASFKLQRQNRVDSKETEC
T1 sequence (P14780 94-707): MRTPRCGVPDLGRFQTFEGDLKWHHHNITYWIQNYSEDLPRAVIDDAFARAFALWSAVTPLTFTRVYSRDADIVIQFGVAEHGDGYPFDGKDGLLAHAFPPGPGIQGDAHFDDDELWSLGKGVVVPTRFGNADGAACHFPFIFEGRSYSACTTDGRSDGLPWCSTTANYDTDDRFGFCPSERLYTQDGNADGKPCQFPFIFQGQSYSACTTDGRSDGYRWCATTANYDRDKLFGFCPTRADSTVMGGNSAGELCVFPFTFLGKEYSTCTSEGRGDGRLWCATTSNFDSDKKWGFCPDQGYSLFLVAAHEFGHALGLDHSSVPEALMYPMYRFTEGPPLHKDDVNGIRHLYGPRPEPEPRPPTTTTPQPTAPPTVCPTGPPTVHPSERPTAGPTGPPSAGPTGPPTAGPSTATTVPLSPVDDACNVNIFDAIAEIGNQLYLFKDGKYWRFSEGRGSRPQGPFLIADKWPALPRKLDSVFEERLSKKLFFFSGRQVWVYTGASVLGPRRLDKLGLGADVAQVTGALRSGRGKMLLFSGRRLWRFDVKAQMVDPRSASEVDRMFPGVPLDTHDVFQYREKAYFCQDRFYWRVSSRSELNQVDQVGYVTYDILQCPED

Molecule | IC50 [1] | IC50 [2] | TACE % inhibition at 1 micromolar [2] | further results
1-(Bromo-benzyl)-4-(4-methoxy-benzenesulfonyl)-piperidine-4-carboxylic acid hydroxyamide [Example 90] | 10.3 nM | 71.9 nM | – | –
2-(4-Fluoro-benzenesulfonyl)-2-but-2-ynyl-hexynoic acid hydroxyamide [Example 78] | 560 nM | – | 24.58% | IC50 [3]: 34 nM
2-[8-(1-carboxy-ethanesulfonyl)-octane-1-sulfonyl]-propionic acid hydroxyamide [Example 49] | – | – | – | MMP 1 % inhibition at 1 micromolar ([4]; 1 micromolar): 10.1%; MMP 9 % inhibition at 1 micromolar ([1]; 1 micromolar): 23.7%; MMP 13 % inhibition at 1 micromolar ([3]; 1 micromolar): 54.6%
5-Methyl-2-(3-methyl-but-2-enyl)-2-(toluene-4-sulfonyl)-hexenoic acid hydroxyamide [Example 42] | 50.9 nM | 36.5 nM | – | IC50 [3]: 6.2 nM
COc1ccc(SC(C)(Cc2ccccc2)C(=O)NO)cc1 (centres unmarked) [Example 1, N-Hydroxy-2-(4-methoxy-phenylsulfanyl)-2-methyl-3-phenyl-propionamnide] | 560 nM | – | 31.62% | IC50 [3]: 193 nM
COc1ccc([S+]([O-])C(C)(Cc2ccccc2)C(=O)NO)cc1 (centres unmarked) [Example 5, N-Hydroxy-2-(4-methoxy-benzenesulfmyl)-2-methyl-3-phenyl-propionamide] | – | – | 25% | –
COc1ccc(S(=O)(=O)C(Cc2ccccc2)C(=O)NO)cc1 (centres unmarked) [Example 9, N-Hydroxy-2-(4-methoxy-benzenesulfonyl)-3-phenyl-propionarmide] | – | – | 20.30% | –
COc1ccc(S(=O)(=O)C(C)(Cc2ccc(OCCN(C(C)C)C(C)C)cc2)C(=O)NO)cc1 (centres unmarked) [Example 20, N-Hydroxy-2-(4-methoxy-benzenesulfonyl)-2-methy-3-[4-(2-N,N-diisopropylamino-ethoxy)-phenyl]-propionamide] | – | – | 31% | –
COc1ccc(S(=O)(=O)C(C)(Cc2ccc(OCCCN3CCN(c4cccc(Cl)c4)CC3)cc2)C(=O)NO)cc1 (centres unmarked) [Example 23, 3-(4-{3-[4-(3-Chloro-phenyl)-piperain-1-yl]-propoxy}-phenyl)-N-hydroxy-2-(4-methoxy-benzenesulfonyl)-2-methyl-propionamide] | – | – | 40.6% | –
COc1ccc(S(=O)(=O)C(C)(Cc2cccc(OCCN3CCOCC3)c2)C(=O)NO)cc1 (centres unmarked) [Example 30, N-Hydroxy-2-(4-methoxy-benzenesulfonyl)-2-methyl-3-[3-(2-morpholin-1-yl-ethoxy)-phenyl]-propionamide] | – | – | 25.2% | –
COc1ccc(S(=O)(=O)C(CCCCOc2ccccc2)(Cc2cccnc2)C(=O)NO)cc1 (centres unmarked) [Example 68, 2-(4-Methoxy-benzenesulfonyl)-6-phenoxy-2-pyridin-3-yhnethyl-hexanoic acid hydroxyamide] | 29 nM | 522 nM | – | IC50 [3]: 27 nM
CCCCCC#CCC(CC#CCCCCC)(C(=O)NO)S(=O)(=O)c1ccc(OC)cc1 [Example 71, 2-(4-methoxy-benzenesulfonyl)-2-oct-2-ynyl-decffynoic acid hydroxyamide] | – | – | 42.21% | –
CC#CCC(CC#CC)(C(=O)NO)S(=O)(=O)c1ccc(OC)cc1 [Example 72, 2-(4-Methoxy-benzenesulfonyl)-2-but-2-ynyl-hextynoic acid hydroxyamide] | – | – | 51.64% | –
C#CCC(CC#C)(C(=O)NO)S(=O)(=O)c1ccc(OC)cc1 [Example 73, 2-(4-Methoxy-benzenesulfonyl)-2-prop-2-ynyl-pentynoic acid hydroxyamde] | – | – | 20.17% | –
COc1ccc(S(=O)(=O)C(CC=C(C)C)(CC=C(C)C)C(=O)NO)cc1 [Example 79, 2-(4-Methoxy-benzenesulfonyl)-5-methyl-2-(3-methyl-but-2-enyl)-hexenoic acid hydroxyamide] | 0.54 nM | 805 nM | – | IC50 [4]: 25 nM
COc1ccc(S(=O)(=O)C2(C(=O)NO)CCN(CCCOc3ccccc3)CC2)cc1 [Example 105, 4-(4-Methoxy-benzenesulfony)-1-(3-phenoxy-propyl)-pipendine-4-carboxyllc acid hydroxyamide] | – | – | 50.2% | –
CCCCCCC(Sc1cccc(C(=O)NO)c1)C(=O)NO (centres unmarked) [Example 184] | – | – | – | TACE % inhibition [2]: 24.8%
CCCCCCC(C(=O)NO)[S+]([O-])c1cccc(C(=O)NO)c1 (centres unmarked) [Example 188, 3-(1-Hydroxycarbamoyl-heptylsulfmyl)-benzoicacid hydroxyamide] | – | – | – | TACE % inhibition at 1 µM [2]: 16.2%
CCCCOc1ccc(S(=O)(=O)C2(C(=O)NO)CCN(Cc3ccc(OCCN4CCCCC4)cc3)CC2)cc1 [Example 242, 4-(4-Butoxy-benzenesulfonyl)-1-[4-(2-piperidin-1-yl-ethoxy)-benzyl]-piperidine-4-carboxylic acid hydroxyamide] | 2 nM | 581 nM | – | IC50 [4]: 1950 nM
CCCCOc1ccc(S(=O)(=O)C2(C(=O)NO)CCN(Cc3cccc(OCCN4CCOCC4)c3)CC2)cc1 [Example 243, 4(4-Butoxy-benzenesulfonyl)-1-[3-(2-morpholinyl-1-ylthoxy)-benzyl]-piperidine-4-carboxylic acid hydroxyamide] | – | 506 nM | – | IC50 [4]: 2180 nM
CN1CCC(C(=O)NO)(S(=O)(=O)c2ccc(Oc3ccc(Cl)cc3)cc2)CC1 [Example 249, 4-[4-(4-chloro-phenoxy)-benzenesulfonyl]1-methyl-piperidine-4-carboxylic acid hydroxyamide] | 2 nM | 270 nM | – | IC50 [3]: 1.6 nM
O=C(NO)C1(S(=O)(=O)c2ccc(Oc3ccc(Cl)cc3)cc2)CCN(Cc2ccccc2)CC1 [Example 252, 1-Benzyl-4-[4-(4-chloro-phenoxy)-benzenesulfonyl]-piperidine-4-carboxylic acid hydroxyamide] | 1.1 nM | – | – | IC50 [4]: 801 nM; IC50 [3]: 0.9 nM
CC(C)CCOc1ccc(S(=O)(=O)C2(C(=O)NO)CCN(Cc3ccccc3)CC2)cc1 [Example 255, 1-Benzyl-4-[4-(3-methyl-butoxy)-benzenesulfonyl]-piperidine-4-carboxylic acid hydroxyamide] | – | 565 nM | – | IC50 [3]: 1.5 nM
CCCCOc1ccc(S(=O)(=O)C2(C(=O)NO)CCN(Cc3cccc(OC)c3)CC2)cc1 [Example 260, 4-(4-butoxy-benzenesulfonyl)-1-(3-methoxy-benzyl)-piperidine-4-carboxylic acid hydroxyamide] | 2.9 nM | 272 nM | – | IC50 [4]: 1490 nM
COc1ccc(S(=O)(=O)C2(C(=O)NO)CCN(Cc3ccc(-c4cccs4)cc3)CC2)cc1 [Example 261, 4-(4-Methoxy-benzenesulfonyl)-1-(thiophen-2-yl-benzyl)-piperidine-4-carboxylic acid hydroxyamide] | 10.9 nM | – | – | IC50 [4]: 513 nM
COc1ccc(S(=O)(=O)C2(C(=O)NO)CCN(Cc3ccc(-c4ccccn4)cc3)CC2)cc1 [Example 262, 4-(4-methoxy-benzenesulfonyl)-1-(4-pyridin-2-yl-benzyl)-piperidine-4-carboxylic acid hydroxyamide] | 6.1 nM | 298 nM | – | IC50 [4]: 422 nM
Cc1ccc(CN2CCC(C(=O)NO)(S(=O)(=O)c3ccc(OCc4ccc(Cl)cc4)cc3)CC2)cc1 [Example 266, [4-(4-Chloro-benzyloxy)-benzenesulfonyl]-1-(4-methylbenzyl)-piperidine-4-carboxylic acid hydroxamide] | 6 nM | 421 nM | – | IC50 [3]: 5.7 nM
(1-Hydroxycarbamoyl-propane-1 -sulfanyl)-propionic acid hydroxyamide [Example 122] | – | – | – | TACE % inhibition at 1 µM [2]: 3.1%
